Tests used:
[1] = target: HLA-A*02:01 (Homo sapiens, UniProt P04439, D140Y/D185E/D98H/E176V/E277Q/G131W/G231S/I119V/I121R/I166T/I218V/L300P/L318F/N151K/N90K/P208A/P217A/Q86G/Q94H/R138H/R169H/T345S); assay: MHC binding assay (UV-ligand exchange, β2m ELISA, peptide exchange yield); conditions: MHC class I binding score; binding to HLA-A*02:01 ranged by peptide exchange yield (UV-ligand exchange, β2m ELISA)
Outline: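 Binding is expressed as peptide exchange yield: stabilized MHC complexes were quantified by β2m ELISA, with a 450 nm TMB read-out on streptavidin-coated plates. Complexes came from UV-ligand exchange, where UV irradiation cleaves a photolabile peptide so the candidate peptide can load.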

[2] = test system: CD8+ T cells; assay: In vitro immunogenicity: priming of CD8+ T cells with artificial APCs loaded with peptide/MHC and anti-CD28, multimer readout; type: cell-based, human; conditions: for Wells positive [%]: HLA-A*02 restricted peptides, percentage of positive wells
Text: In order to obtain information regarding the immunogenicity of the TUMAPs of the present invention, the inventors performed investigations using an in vitro T-cell priming assay based on repeated stimulations of CD8+ T cells with artificial antigen presenting cells (aAPCs) loaded with peptide/MHC complexes and anti-CD28 antibody.
In order to perform in vitro stimulations by artificial antigen presenting cells loaded with peptide-MHC complex (pMHC) and anti-CD28 antibody, the inventors first isolated CD8+ T cells from fresh HLA-A*02 leukapheresis products via positive selection using CD8 microbeads (Miltenyi Biotec, Bergisch-Gladbach, Germany) of healthy donors obtained from the University clinics Mannheim, Germany, after informed consent.
PBMCs and isolated CD8+ lymphocytes were incubated in T-cell medium (TCM) until use consisting of RPMI-Glutamax (Invitrogen, Karlsruhe, Germany) supplemented with 10% heat inactivated human AB serum (PAN-Biotech, Aidenbach, Germany), 100 U/ml Penicillin/100 μg/ml Streptomycin (Cambrex, Cologne, Germany), 1 mM sodium pyruvate (CC Pro, Oberdorla, Germany), 20 μg/ml Gentamycin (Cambrex). 2.5 ng/ml IL-7 (PromoCell, Heidelberg, Germany) and 10 U/ml IL-2 (Novartis Pharma, Nürnberg, Germany) were also added to the TCM at this step.
Generation of pMHC/anti-CD28 coated beads, T-cell stimulations and readout was performed in a highly defined in vitro system using four different pMHC molecules per stimulation condition and 8 different pMHC molecules per readout condition.
The purified co-stimulatory mouse IgG2a anti human CD28 Ab 9.3 (Jung et al., 1987) was chemically biotinylated using Sulfo-N-hydroxysuccinimidobiotin as recommended by the manufacturer (Perbio, Bonn, Germany). Beads used were 5.6 μm diameter streptavidin coated polystyrene particles (Bangs Laboratories, Illinois, USA).
pMHC used for positive and negative control stimulations were A*0201/MLA-001 (peptide […] (SEQ ID NO. 664) from modified Melan-A/MART-1) and A*0201/DDX5-001 ([…] from DDX5, SEQ ID NO. 665), respectively.
800.000 beads/200 μl were coated in 96-well plates in the presence of 4×12.5 ng different biotin-pMHC, washed and 600 ng biotin anti-CD28 were added subsequently in a volume of 200 μl. Stimulations were initiated in 96-well plates by co-incubating […] CD8+ T cells with 2×10^5 washed coated beads in 200 μl TCM supplemented with 5 ng/ml IL-12 (PromoCell) for 3 days at 37° C. Half of the medium was then exchanged by fresh TCM supplemented with 80 U/ml IL-2 and incubating was continued for 4 days at 37° C. This stimulation cycle was performed for a total of three times. For the pMHC multimer readout using 8 different pMHC molecules per condition, a two-dimensional combinatorial coding approach was used as previously described (Andersen et al., 2012) with minor modifications encompassing coupling to 5 different fluorochromes. Finally, multimeric analyses were performed by staining the cells with Live/dead near IR dye (Invitrogen, Karlsruhe, Germany), CD8-FITC antibody clone SK1 (BD, Heidelberg, Germany) and fluorescent pMHC multimers. For analysis, a BD LSRII SORP cytometer equipped with appropriate lasers and filters was used. Peptide specific cells were calculated as percentage of total CD8+ cells. Evaluation of multimeric analysis was done using the FlowJo software (Tree Star, Oregon, USA). In vitro priming of specific multimer+ CD8+ lymphocytes was detected by comparing to negative control stimulations.

Peptide exchange [1]	Substance	Wells positive [%] [2]	donors ([2]; HLA-A*02, percentage of positive donors)	wells ([2]; HLA-A*02, percentage of positive wells)
“++++” (≧75% = ++++)	143 (LLLDITPEI; listed as Homo sapiens) [compound 143]	“+” (<20% = +)		
“+++” (≧50 = +++)	150 (RLWEEGEELEL; listed as Homo sapiens) [compound 150]	“+” (<20% = +)		
“+++” (≧50 = +++)	152 (ILFEDIFDV; listed as Homo sapiens) [compound 152]	“++” (20%-49% = ++)		
“++” (≧20% = ++)	157 (SLNDEVPEV; listed as Homo sapiens) [compound 157]	“+++” (50%-69% = +++)		
“+++” (≧50 = +++)	166 (YLNHLEPPV; listed as Homo sapiens) [compound 166]	“++++” (> = 70% = ++++)		
“++” (≧20% = ++)	191 (LLQEGQALEYV; listed as Homo sapiens) [compound 191]	“+++” (50%-69% = +++)		
“+++” (≧50 = +++)	198 (KTINKVPTV; listed as Homo sapiens) [compound 198]	“++” (20%-49% = ++)		
“+++” (≧50 = +++)	199 (ALQDVPLSSV; listed as Homo sapiens) [compound 199]	“+” (<20% = +)		
“+++” (≧50 = +++)	215 (QLINHLHAV; listed as Homo sapiens) [compound 215]	“++” (20%-49% = ++)		
“++” (≧20% = ++)	242 (AIAYILQGV; listed as Homo sapiens) [compound 242]	“+++” (50%-69% = +++)		
“+++” (≧50 = +++)	247 (VLLPNDLLEKV; listed as Homo sapiens) [compound 247]	“+” (<20% = +)		
“+++” (≧50 = +++)	283 (ALYIGDGYVIHLA; listed as Homo sapiens) [compound 283]		+++ (50%-69 = +++)	+ (<20% = +)
“++” (≧20% = ++)	319 (SLEPQIQPV; listed as Homo sapiens) [compound 319]	“+” (<20% = +)		
“+++” (≧50 = +++)	384 (ILFANPNIFV; listed as Homo sapiens) [compound 384]	“+” (<20% = +)		
“++++” (≧75% = ++++)	395 (ALALGGIAVV; listed as Homo sapiens) [compound 395]	“+++” (50%-69% = +++)		
“+++” (≧50 = +++)	443 (GLWEIENNPTV; listed as Homo sapiens) [compound 443]	“+” (<20% = +)		
“+++” (≧50 = +++)	446 (QLIPALAKV; listed as Homo sapiens) [compound 446]	“++” (20%-49% = ++)		
“+++” (≧50 = +++)	454 (KLPPPPPQA; listed as Homo sapiens) [compound 454]	“++” (20%-49% = ++)		
“++++” (≧75% = ++++)	460 (AMLEKNYKL; listed as Homo sapiens) [compound 460]	“+” (<20% = +)		
“+++” (≧50 = +++)	463 (SLVESHLSDQLTL; listed as Homo sapiens) [compound 463]	“++” (20%-49% = ++)		
“+++” (≧50 = +++)	489 (KMWEELPEVV; listed as Homo sapiens) [compound 489]	“+” (<20% = +)		
“++” (≧20% = ++)	499 (KIFDIDEAEEGV; listed as Homo sapiens) [compound 499]	“+” (<20% = +)		
“++” (≧20% = ++)	511 (FLDPYCSASV; listed as Homo sapiens) [compound 511]	“+” (<20% = +)		
“+++” (≧50 = +++)	518 (KLNAEVACV; listed as Homo sapiens) [compound 518]	“++” (20%-49% = ++)		
“++” (≧20% = ++)	603 (FLIEPEHVNTV; listed as Homo sapiens) [compound 603]	“+” (<20% = +)		

Source: US20170002055A1, “Novel peptides and combination of peptides for use in immunotherapy against ovarian cancer and other cancers” (immatics biotechnologies GmbH, priority 2015, published 2017)
